The values that follow come from publication PMC11117691, “Flipping the GPCR Switch: Structure-Based Development of Selective Cannabinoid Receptor 2 Inverse Agonists” (ACS Central Science, 2024).

Broadly, the Kd is a measure of binding affinity in units of concentration. The low end stands for tighter binding, the high end for weaker binding. Usually kon stands for a measure of how fast the partners come together. A lower kon goes with slower complex formation. As usually defined, the Emax is the size of the effect at its maximum, as opposed to the concentration needed.

Experiment [1] concerns the target T1, hCB2R (Homo sapiens, UniProt P34972). The experiment is described as follows: TR-FRET saturation binding assay at CB2R. Also on record: expressed in transfected cells; host or cells: HEK293-TR cells, tetracycline-induced; membrane preparations. The conditions noted are these: room temperature; for Kd: TR-FRET, HEK293 membranes of SNAP-Lumi4-Tb labeled hCB2R. A general note: TR-FRET usually uses a lanthanide donor and a delayed reading to cut background.

For experiment [2], the target named is T1, hCB2R. The experiment is described as follows: TR-FRET kinetic binding assay at CB2R. Also on record: expressed in transfected cells; host or cells: HEK293-TR cells, tetracycline-induced; membrane preparations. The conditions noted are these: for koff / kon / τ (receptor residence time) / Kd: hCB2R-HEK293 membranes, mean N = 3; for Kd: kinetic Kd.
The target in experiment [3] is T1, hCB2R. Put plainly: BRET Gi-CASE G protein recruitment membrane assay. The experiment is classed as biochemical. Also on record: expressed in transfected cells; host or cells: HEK293-TR cells, tetracycline-induced; membrane preparations. The note with it: for EC50: hCB2R-HEK293 T-REx membranes, mean N = 3–4, read-out: pEC50 (Gi-CASE G protein recruitment) (converted).

Experiment [4] addresses T1, hCB2R. The experiment is classed as cell-based. Also on record: expressed in transfected cells; host or cells: HEK293TR cells, tetracycline-induced, live cells. The note with it: HEK293TR-CB2R-nLuc cells, representative of N = 3.
Description: HEPES. Following the wash, assay buffer containing 10 μM furimazine, 90 μL/well was added
to the wells. The plate was then incubated at 37 °C for 15 minutes to allow the nanoLuc substrate
furimazine to enter the cells. Three BRET cycles of 1-minute intervals were performed to assess
basal BRET levels, following which 10 μL of each compound, diluted in assay buffer was added
to the assay plate, which was read at 1-minute intervals for 30 minutes.
Buffer containing 10% DMSO (1% final) served as the vehicle control and
The assay buffer used to profile compounds in the CB 2R Gi-CASE system consisted of HBSS
containing 0.02% pluronic F127, 0.5% BSA and 5 mM HEPES. The reference compounds HU -
polypropylene plate. 0.5 µL of the reference and test compound serial dilutions was then added to
a white 384 well OptiplateTM (PerkinElmer) containing 39.5 μL of assay buff er. Finally, the CB 2R
membranes containing the G i-CASE biosensor were thawed and added into assay buffer containing
50 µM furimazine. Membranes (10 μL) were added to the assay plate at a final concentration of 5
µg/well. The total assay volume was 50 µL.
Experiment [5] deals with T1, hCB2R. Put plainly: cAMP HTRF assay in hCB2R-CHO cells. The class given is cell-based. Details: expressed in transfected cells. The conditions noted are these: for EC50: hCB2R-CHO cells, forskolin stimulated, mean N = 3. The source says:
One of the canonical signaling pathways of CB2R involves association with Gαi/o proteins, which elicit reversible inhibition of adenylyl cyclase resulting in a decrease of cellular cAMP levels and suppression of protein kinase A activity.[67] Consequently, we have investigated the change in cAMP levels upon probe addition using homogeneous time-resolved fluorescence (HTRF) cAMP assay (Table 3).
Homogeneous Time-Resolved Fluorescence (HTRF) cAMP assay
The homogeneous time-resolved fluorescence (HTRF) cAMP assay was conducted according to the manufacturer’s protocol for the cAMP-Gs Dynamic kit (Cisbio). Briefly, the CHO cell line stably overexpressing CB2R was maintained in Ham’s F12 supplemented with 10% FBS, penicillin (100 U/mL, Gibco-ThermoFisher), streptomycin (100 μg/mL, Gibco-ThermoFisher) and G418 (400 μg/mL, ThermoFisher). For CB2R compounds test, the cells were harvested with Cell Dissociation Buffer, resuspended in F-12 K at 0.4×10^6 cells/mL, and dispensed into 384-well low volume plates at 2000 cells/5 μL per well. The cells were stimulated with compounds diluted in Stimulation Buffer (2.5 μL/well) for 15 min at room temperature, followed by the addition of forsklin (2.5 μL 25 μM). After 15 mins incubation, reactions were stopped by 5 μL/well cAMP-d2 conjugate working solution followed by 5 μL/well of anti-cAMP cryptate working solution. After incubation for 1 h at room temperature, the plates were read in a PerkinElmer Envision reader for Time-Resolved Förster Resonance Energy Transfer (TR-FRET) at 620 nm and 665 nm.
β–arrestin recruitment assay
SNAP-tagged human CB2R HEK293-TR cells were maintained in a humidified environment at 37 °C and 5% CO2 in Dulbecco’s modified Eagle’s medium (DMEM) with 10% fetal bovine serum (FBS) containing blasticidin (5 µg/mL; Invitrogen) and (Zeocin; 20 µg/mL; Invitrogen). For receptor-inducible expression, cells were seeded into t175 cm2 flasks, grown to 70% confluence and DMEM containing 1 µg/ml tetracycline added.
HEK293TR-CB2R-nLuc cells expressing a fluorescently labelled β-arrestin protein were maintained in a humidified environment at 37 °C and 5% CO2 in Dulbecco’s modified Eagle’s medium (DMEM) with 10% fetal bovine serum (FBS) containing blasticidin (5 µg/mL; Invitrogen), Zeocin (20 µg/mL; Invitrogen) and G418 (0.2 mg/mL; Invitrogen) and used to assess compound stimulated β-arrestin recruitment to the human CB2R. Cultured cells were harvested upon reaching 70% confluency and plated at a seeding density of 50,000 cells per well. The cells were grown for 48 h until they reached confluency and then stimulated with 1 μg/mL tetracycline for a further 48 h to induce CB2R expression. Cell culture media was then aspirated from the wells and the cells were washed with assay buffer, 100 μL/well HBSS containing 0.5% BSA and 5 mM

For a further experiment, the system named is rat CB2R. Put plainly: Live cell fluorescent Ca2+ imaging (Fluo-4AM) in AtT-20(rCB2R) cells. The class given is cell-based. The conditions noted are these: 20 μM, live AtT-20(rCB2R) cells; HU-308 added after (S)-3/(R)-3. The method, then: Live AtT-20 cells overexpressing rat CB2R [AtT-20(rCB2R)] were treated with Fluo-4AM Ca^2+ dye and imaged by confocal microscopy (Figure 7). […] Ionomycin was added at the end of the experiment to saturate Ca^2+ levels.
Culture media (D10): Contains high glucose DMEM (450 mL, Gibco, #11965-092), FBS (50 mL, HyClone’s USDA tested, #SH30910), antibiotic Penicillin-strep (2.5 mL, Gibco, #15070).
Sterile filtered and aliquoted.
Culture media (D10) with hygromycin-B selection: Contains high glucose DMEM (450 mL, Gibco, #11965-092), FBS (50 mL, HyClone’s USDA tested, #SH30910), antibiotic Penicillin-strep (2.5 mL, Gibco, #15070). Sterile filtered and aliquoted. Selection maintained with Hygromycin-B (200 µg/mL, Thermo Fisher Scientific, #10687010).
Imaging buffer: Contains (in mM): 115 NaCl, 1.2 CaCl2, 1.2 MgCl2, 1.2 K2HPO4, 20 HEPES, 20 D-glucose. Adjusted to pH 7.4 with NaOH. Sterile filtered and aliquoted.
AtT-20 wild type (WT) and overexpressing rat CB2R cells (AtT-20(rCB2R)) were cultured in D10 culture media. […]
Fluorescence images were acquired with an Olympus Fluoview 1200 laser scanning confocal microscope using a 63× objective. […] For a direct comparison of the AtT-20(rCB2R) and wild type cells, one well of each genotype was labelled in parallel, and the identical settings on the confocal microscope were used between wells to accurately compare the dye fluorescence intensities.

In experiment [6] the test system is CB2R-mediated phosphorylation of endogenous ERK1/2. The experiment is described as follows: AlphaScreen SureFire phospho-ERK assay in CB2R inducible HCC1954 cells. The class given is cell-based. The conditions noted are these: 1 μM, 30 min, versus vehicle. The method, then: Activation of CB2R is associated with downstream stimulation of mitogen-activated protein kinases, such as ERK1/2, mediated via either Gβγ or β-arrestins.[70],[71] We have tested representative high-affinity fluorescent probe (R)-2 for CB2R-mediated phosphorylation of endogenous ERK1/2 in a CB2R inducible breast cancer HCC1954 cell line using the AlphaScreen SureFire phospho-ERK assay (Figure 6). […] (1 μM), or (R)-2 (1 μM) for 30 min. Following cell lysis, lysates were incubated with a mixture containing donor and acceptor beads for 2 h at room temperature and the luminescence emission signal was measured.
For ERK phosphorylation assay an inducible HCC1954 breast cancer cell line expressing CB2R […]
ERK1/2 phosphorylation was measured using AlphaScreen® SureFire® p‐ERK 1/2 assay kit according to manufacturer instructions (PerkinElmer) . Briefly, HCC1954 cells were seeded at a density of 100 000 cells/well in poly -D-lysine coated 96-well plates and incubated in absence or presence of 1 µg/ mL doxycycline for 24 h. On the next day prior to assay, cells were serum-starved for 2 h at 37°C. […] The plate was incubated for 2 h and ERK1/2 phosphorylation was measured on CLARIOstar® Plus Multimode Plate Reader (BMG Labtech, Germany), using a ratio of 620/570 nm. […]
Statistical significance was determined by one-way ANOVA followed by Tukey's post hoc test.

Setting [7] is: normalized to agonist CP-55,940 response (100%) and basal level (0%).

T1 sequence (P34972 whole entry): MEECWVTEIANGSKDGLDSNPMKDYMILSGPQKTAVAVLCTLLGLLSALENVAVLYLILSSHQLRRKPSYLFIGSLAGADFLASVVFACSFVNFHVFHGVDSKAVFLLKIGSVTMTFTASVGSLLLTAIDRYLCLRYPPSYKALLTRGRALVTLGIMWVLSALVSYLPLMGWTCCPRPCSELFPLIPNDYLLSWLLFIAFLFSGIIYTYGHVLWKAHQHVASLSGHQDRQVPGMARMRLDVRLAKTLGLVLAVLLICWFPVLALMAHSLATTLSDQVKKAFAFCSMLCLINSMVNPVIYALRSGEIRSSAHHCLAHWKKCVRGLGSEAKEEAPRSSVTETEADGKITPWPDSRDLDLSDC

With `C#CCCC(=O)NCC1=CC(c2c(OC)cc(C(C)(C)C(CCCCCN=[N+]=[N-])c3ccccc3)cc2OC)C2CC1C2(C)C` [(S)-3], the Kd at hCB2R [1] turned out to be 0.0021 µM. Moreover, on hCB2R [2] (37 °C), the koff is 4.96 10^–2 min^–1, the kon is given as 44.3 10^6 M^–1 min^–1, the “τ (receptor residence time)” value came out at 20.2 min and binding was characterised by a dissociation constant (Kd) of 0.00112 µM. For the same compound, on hCB2R [2] (ΔG exp = RT ln(Kd), T = 310 K, from experimental Kd values), the “ΔG (Experimental)” value is on record as “–12.7 kcal mol-1”. The EC50 at hCB2R [3] was 0.0309 µM. In addition, at hCB2R [4], the “β-arrestin recruitment (BRET signal)” value is on record as “Baseline BRET signal was retained”. At hCB2R [5], this compound gave an EC50 of 0.0407 µM. Moreover, at hCB2R [5] (setting [7]), the “Emax (cAMP)” value is “–49%”.

For RO7568997 [reference compound], at hCB2R [2] (tracer of competition-association assay, value fixed in fitting, 37 °C), the “dissociation rate of fluorescent tracer” value amounted to 1.13 min⁻¹.

For the compound `COc1cc(C(C)(C)C(CCCCCN=[N+]=[N-])c2ccccc2)cc(OC)c1C1C=C(CN)C2CC1C2(C)C` [(R)-1], the Kd on hCB2R [1] was found to be 0.0391 µM. The “fold greater binding affinity for CB2R in comparison to (S)-1” value on hCB2R [1] (ratio of Kd values) is reported as 12 fold. For the same compound, on hCB2R [2] (37 °C), the koff is reported as 13.9 10^–2 min^–1, the kon is 12.0 10^6 M^–1 min^–1, the “τ (receptor residence time)” value is given as 7.19 min and binding was put at a Kd of 0.0116 µM. The EC50 on hCB2R [3] was 0.158 µM. Also, the “β-arrestin recruitment (BRET signal)” value at hCB2R [4] was “Baseline BRET signal was retained”. At hCB2R [5], this compound had an EC50 of 0.112 µM. On hCB2R [5] (setting [7]), the “Emax (cAMP)” value is “–44%”.

For `CCCCCCC(C)(C)c1cc(OC)c([C@@H]2C=C(CO)[C@@H]3C[C@H]2C3(C)C)c(OC)c1` [HU-308, reference compound], the “intracellular Ca2+ (Fluo-4AM fluorescence)” value in the experiment with rat CB2R was “triggered a robust fluorescence spike”.

`CCCC(C)(C)c1ccc2c(c1)OC(C)(C)[C@@H]1CC=C(C)C[C@@H]21` [JWH133]: the figures for the ERK1/2 phosphorylation level result in experiment [6] (CB2R expression induced with DOX (1 μg/mL)) and in experiment [6] (absence of CB2R expression inducer (DOX)) were “effectively stimulated ERK1/2 phosphorylation” and “remained the same”, respectively.

On to `C#CCCC(=O)NCC1=CC(c2c(OC)cc(C(C)(C)C(CCCCCN=[N+]=[N-])c3ccccc3)cc2OC)C2CC1C2(C)C` [(S)-3/(R)-3], for which the “intracellular Ca2+ (Fluo-4AM fluorescence)” value in the experiment on rat CB2R is “did not elicit increase in Fluo-4AM fluorescence”.

On to `COc1cc(C(C)(C)C(CCCCCN=[N+]=[N-])c2ccccc2)cc(OC)c1C1C=C(CN)C2CC1C2(C)C` [(S)-1], for which the Kd on hCB2R [1] is 0.476 µM. Besides, on hCB2R [2] (37 °C), the koff is on record as 115 10^–2 min^–1, the kon is 157000 M⁻¹ s⁻¹, the “τ (receptor residence time)” value came to 0.87 min and binding was put at a Kd of 0.122 µM. Also, the “fold increased potency of G protein recruitment over adenylyl cyclase inhibition” value at hCB2R [3] (Gi-CASE pEC50 versus cAMP pEC50) is listed as 14 fold. The EC50 at hCB2R [3] was 0.191 µM. At hCB2R [4], the “β-arrestin recruitment (BRET signal)” value is listed as “Baseline BRET signal was retained”. The compound also showed an EC50 at hCB2R [5] of 2.69 µM. Besides, the Emax on hCB2R [5] (setting [7]) is -44%.
